Earlier results, collected in patent publication US10736868B2, “Compositions comprising rumenic acid-rich conjugated linoleic acid for brain health” (STEPAN SPECIALTY PRODUCTS, LLC, priority 2016, dated 2020).
Where two headings read alike, the source gives them in different places.

Assays:
cognitive function [1] = conditions: hypertensive older adults
[2] = system: allergic responses mediated by inflammation; conditions: 8 weeks; young men and women with birch pollen allergy
PPARγ [3] = molecular target: T1, PPARγ (Homo sapiens, UniProt P37231); conditions: human epithelial cells
T1 construct: host or cells: human epithelial cells
T1 sequence (P37231 1-505): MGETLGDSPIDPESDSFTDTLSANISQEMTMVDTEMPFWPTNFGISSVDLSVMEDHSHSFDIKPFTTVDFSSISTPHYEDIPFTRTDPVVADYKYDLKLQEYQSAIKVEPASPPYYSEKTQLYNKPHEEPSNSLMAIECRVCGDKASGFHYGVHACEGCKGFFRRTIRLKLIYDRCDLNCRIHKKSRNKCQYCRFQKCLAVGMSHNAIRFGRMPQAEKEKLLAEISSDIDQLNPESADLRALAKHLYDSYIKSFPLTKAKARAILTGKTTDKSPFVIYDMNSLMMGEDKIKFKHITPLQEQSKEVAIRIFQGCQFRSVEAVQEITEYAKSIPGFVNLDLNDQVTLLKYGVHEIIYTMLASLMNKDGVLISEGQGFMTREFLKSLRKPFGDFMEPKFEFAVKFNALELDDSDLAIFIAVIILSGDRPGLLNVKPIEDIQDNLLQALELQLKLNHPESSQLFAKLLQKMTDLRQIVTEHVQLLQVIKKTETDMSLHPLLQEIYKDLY

PPARγ [4] = molecular target: T2, PPARγ (Mus musculus, UniProt P37238); conditions: mouse macrophage cells
T2 construct: host or cells: mouse macrophage cells
T2 sequence (P37238 1-505): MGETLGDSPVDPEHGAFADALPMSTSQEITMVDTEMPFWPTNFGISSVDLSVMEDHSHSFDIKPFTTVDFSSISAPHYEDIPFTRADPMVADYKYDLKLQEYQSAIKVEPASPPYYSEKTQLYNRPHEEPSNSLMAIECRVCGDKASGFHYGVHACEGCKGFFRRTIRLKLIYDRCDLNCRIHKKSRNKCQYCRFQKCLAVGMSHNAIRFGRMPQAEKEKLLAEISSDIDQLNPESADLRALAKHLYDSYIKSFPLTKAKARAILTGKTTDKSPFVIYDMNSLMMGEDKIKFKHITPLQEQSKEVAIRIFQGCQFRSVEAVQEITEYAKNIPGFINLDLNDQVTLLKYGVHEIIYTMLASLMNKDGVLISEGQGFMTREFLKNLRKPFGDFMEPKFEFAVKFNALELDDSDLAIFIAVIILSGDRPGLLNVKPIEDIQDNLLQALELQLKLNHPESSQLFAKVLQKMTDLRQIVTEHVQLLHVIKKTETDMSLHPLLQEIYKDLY

cognitive function [5] = conditions: hypertensive older adults; remark: listed apart in the source

CCCCC(=O)N(Cc1ccc(-c2ccccc2-c2nnn[nH]2)cc1)[C@H](C(=O)O)C(C)C [valsartan]
identification, verbal fluency, or word list recognition (cognitive function [1]): did not influence
word list memory and recall (cognitive function [1]): improved

CCCCCC/C=C/C=C\CCCCCCCC(=O)O [RA, cis-9, trans-11 linoleic acid]
allergic responses mediated by inflammation [2]: reduced
inflammatory responses via activation of PPARγ (PPARγ [3]): reduced
PPARγ activation (PPARγ [4]): activated

CCCCc1nc(Cl)c(CO)n1Cc1ccc(-c2ccccc2-c2nn[nH]n2)cc1 [losartan]
verbal fluency (cognitive function [5]): not
word list memory and recall (cognitive function [5]): improved
